System: 282377-053-R-J1-PDC complex spheroid viability
Assay: Anticancer human tumor 282377-053-R-J1-PDC patient-derived colon adenocarcinoma cell line growth inhibition [POLQ]
Conditions: for IC50: curve of first compound; for viability, T/C: stronger effect = lower value; active = viability on the fitted dose curve at most 10% of control; inactive = the rest
Method in brief: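 Complex spheroid viability model combining PDC tumour cells with endothelial (HUVEC) and MSC stromal cells. Novobiocin, ART-558 or RP6685 were tested singly and in combination with standard and investigational anticancer drugs. Each was titrated in half-log steps from near clinical Cmax, or from 10 microM where Cmax was unknown.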
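Also: spheroids exposed to compounds for seven days.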
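For viability, T/C in this document: 100% = DMSO vehicle control viability.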

CC(=O)O[C@H]1C(=O)[C@@]2(C)[C@H]([C@H](OC(=O)c3ccccc3)[C@]3(O)C[C@H](OC(=O)[C@H](O)[C@@H](NC(=O)c4ccccc4)c4ccccc4)C(C)=C1C3(C)C)[C@]1(OC(C)=O)CO[C@@H]1C[C@@H]2O + Nc1ccc(C#CCN(C(=O)Cc2ncc(C(F)(F)F)cc2C(F)(F)F)c2ccc(F)cc2)nn1
> 3000 nM: IC50 (second compound 0.0316 µM) | IC50 (second compound 0.1 µM) | IC50 (second compound 1 µM) | IC50 (second compound 10 µM)
inactive: viability, T/C (second compound 0.0316 µM, first compound 0.00949 µM) 102% | viability, T/C (second compound 0.0316 µM, first compound 0.03 µM) 50.7% | viability, T/C (second compound 0.0316 µM, first compound 0.0949 µM) 47.4% | viability, T/C (second compound 0.0316 µM, first compound 0.3 µM) 46.9% | viability, T/C (second compound 0.0316 µM, first compound 0.949 µM) 51.2% | viability, T/C (second compound 0.0316 µM, first compound 3 µM) 65.8% | viability, T/C (second compound 0.1 µM, first compound 0.00949 µM) 102% | viability, T/C (second compound 0.1 µM, first compound 0.03 µM) 65.9% | viability, T/C (second compound 0.1 µM, first compound 0.0949 µM) 50.4% | viability, T/C (second compound 0.1 µM, first compound 0.3 µM) 46.5% | viability, T/C (second compound 0.1 µM, first compound 0.949 µM) 53.8% | viability, T/C (second compound 0.1 µM, first compound 3 µM) 64.9% | viability, T/C (second compound 0.316 µM, first compound 0.00949 µM) 100% | viability, T/C (second compound 0.316 µM, first compound 0.03 µM) 47.7% | viability, T/C (second compound 0.316 µM, first compound 0.0949 µM) 49.7% | viability, T/C (second compound 0.316 µM, first compound 0.3 µM) 50.1% | viability, T/C (second compound 0.316 µM, first compound 0.949 µM) 47.2% | viability, T/C (second compound 0.316 µM, first compound 3 µM) 65.2% | viability, T/C (second compound 1 µM, first compound 0.00949 µM) 99.1% | viability, T/C (second compound 1 µM, first compound 0.03 µM) 57.4% | viability, T/C (second compound 1 µM, first compound 0.0949 µM) 44.2% | viability, T/C (second compound 1 µM, first compound 0.3 µM) 53.3% | viability, T/C (second compound 1 µM, first compound 0.949 µM) 57.3% | viability, T/C (second compound 1 µM, first compound 3 µM) 57.7% | viability, T/C (second compound 3.16 µM, first compound 0.00949 µM) 87.8% | viability, T/C (second compound 3.16 µM, first compound 0.03 µM) 52.8% | viability, T/C (second compound 3.16 µM, first compound 0.0949 µM) 42.3% | viability, T/C (second compound 3.16 µM, first compound 0.3 µM) 49.7% | viability, T/C (second compound 3.16 µM, first compound 0.949 µM) 45.8% | viability, T/C (second compound 3.16 µM, first compound 3 µM) 60.8% | viability, T/C (second compound 10 µM, first compound 0.00949 µM) 106% | viability, T/C (second compound 10 µM, first compound 0.03 µM) 58.8% | viability, T/C (second compound 10 µM, first compound 0.0949 µM) 49.7% | viability, T/C (second compound 10 µM, first compound 0.3 µM) 50.9% | viability, T/C (second compound 10 µM, first compound 0.949 µM) 60.9% | viability, T/C (second compound 10 µM, first compound 3 µM) 77.6%
91.8 nM: IC50 (second compound 3.16 µM)
3000 nM: IC50 (second compound 0.316 µM)

CC[C@@]1(O)C(=O)OCc2c1cc1n(c2=O)Cc2cc3c(CN(C)C)c(O)ccc3nc2-1 + Nc1ccc(C#CCN(C(=O)Cc2ncc(C(F)(F)F)cc2C(F)(F)F)c2ccc(F)cc2)nn1
inactive: viability, T/C (second compound 0.0316 µM, first compound 0.000316 µM) 117% | viability, T/C (second compound 0.0316 µM, first compound 0.001 µM) 90.7% | viability, T/C (second compound 0.0316 µM, first compound 0.00316 µM) 124% | viability, T/C (second compound 0.0316 µM, first compound 0.01 µM) 103% | viability, T/C (second compound 0.0316 µM, first compound 0.0316 µM) 96.5% | viability, T/C (second compound 0.0316 µM, first compound 0.1 µM) 99.8% | viability, T/C (second compound 0.1 µM, first compound 0.000316 µM) 91.1% | viability, T/C (second compound 0.1 µM, first compound 0.001 µM) 99.2% | viability, T/C (second compound 0.1 µM, first compound 0.00316 µM) 91% | viability, T/C (second compound 0.1 µM, first compound 0.01 µM) 94.7% | viability, T/C (second compound 0.1 µM, first compound 0.0316 µM) 103% | viability, T/C (second compound 0.1 µM, first compound 0.1 µM) 102% | viability, T/C (second compound 0.316 µM, first compound 0.000316 µM) 97.1% | viability, T/C (second compound 0.316 µM, first compound 0.001 µM) 94.8% | viability, T/C (second compound 0.316 µM, first compound 0.00316 µM) 91.7% | viability, T/C (second compound 0.316 µM, first compound 0.01 µM) 79.3% | viability, T/C (second compound 0.316 µM, first compound 0.0316 µM) 101% | viability, T/C (second compound 0.316 µM, first compound 0.1 µM) 101% | viability, T/C (second compound 1 µM, first compound 0.000316 µM) 95.2% | viability, T/C (second compound 1 µM, first compound 0.001 µM) 88.9% | viability, T/C (second compound 1 µM, first compound 0.00316 µM) 83% | viability, T/C (second compound 1 µM, first compound 0.01 µM) 85% | viability, T/C (second compound 1 µM, first compound 0.0316 µM) 102% | viability, T/C (second compound 1 µM, first compound 0.1 µM) 91.1% | viability, T/C (second compound 3.16 µM, first compound 0.000316 µM) 95.8% | viability, T/C (second compound 3.16 µM, first compound 0.001 µM) 95.7% | viability, T/C (second compound 3.16 µM, first compound 0.00316 µM) 94.2% | viability, T/C (second compound 3.16 µM, first compound 0.01 µM) 95.4% | viability, T/C (second compound 3.16 µM, first compound 0.0316 µM) 103% | viability, T/C (second compound 3.16 µM, first compound 0.1 µM) 91.8% | viability, T/C (second compound 10 µM, first compound 0.000316 µM) 111% | viability, T/C (second compound 10 µM, first compound 0.001 µM) 93.7% | viability, T/C (second compound 10 µM, first compound 0.00316 µM) 124% | viability, T/C (second compound 10 µM, first compound 0.01 µM) 112% | viability, T/C (second compound 10 µM, first compound 0.0316 µM) 112% | viability, T/C (second compound 10 µM, first compound 0.1 µM) 127%
> 100 nM: IC50 (second compound 0.0316 µM) | IC50 (second compound 0.1 µM) | IC50 (second compound 0.316 µM) | IC50 (second compound 1 µM) | IC50 (second compound 3.16 µM) | IC50 (second compound 10 µM)

Source: PubChem BioAssay AID1963852 (Molecular Pharmacology Branch, DTP, NCI, 2024)
